The numbers were not newly measured in PMC4168267 (Scientific Reports, 2014), which cites them from elsewhere.

The subject of data set [1] is chymotrypsin. Nature of the data set: chymotrypsin.
Data set [2] deals with Gαi1-GDP (Homo sapiens, UniProt P63096). The settings on record: R6A reference peptide of the competition assay.
Gαi1-GDP, sequence (P63096 whole entry): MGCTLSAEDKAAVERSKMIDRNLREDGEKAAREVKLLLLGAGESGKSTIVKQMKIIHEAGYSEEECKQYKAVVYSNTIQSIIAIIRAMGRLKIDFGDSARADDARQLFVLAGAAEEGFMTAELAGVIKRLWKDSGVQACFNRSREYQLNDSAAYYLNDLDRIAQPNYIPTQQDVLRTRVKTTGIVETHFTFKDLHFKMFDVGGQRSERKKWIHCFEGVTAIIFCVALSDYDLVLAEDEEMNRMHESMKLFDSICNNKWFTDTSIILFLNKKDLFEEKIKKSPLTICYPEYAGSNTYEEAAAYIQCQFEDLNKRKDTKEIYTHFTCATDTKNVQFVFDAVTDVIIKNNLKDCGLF

As for MITWYEFVAGTK, in data set [1], the cleaved bond result is recorded as “Y5-E, major” and the not cleaved entry was “intact”.
As to MSQTKRLDDQLYWWEYL [Peptide R6A], the Kd in data set [2] is 60 nM.
